From US20210163443A1, “Febrifugine Derivatives” (BRISTOL-MYERS SQUIBB COMPANY, priority 2019, published 2021) come the findings set out here.

Where a name gives a salt, the structure may show the parent alone. A value given as a limit tells only on which side of the number the result lay.

Data set [1] has as its target T1, human ProRS (prolyl tRNA synthetase moiety of glutamyl prolyl tRNA synthetase, EPRS) (Homo sapiens, UniProt P07814).
T1 construct: The prolyl tRNA synthetase moiety (ProRS) in the cDNA of glutamyl prolyl tRNA synthetase was subcloned; 6xHis (N, cleaved yes); made in house; host or cells: E. coli BL21 (DE3)
T1 sequence (P07814 1007-1512 limits assumed): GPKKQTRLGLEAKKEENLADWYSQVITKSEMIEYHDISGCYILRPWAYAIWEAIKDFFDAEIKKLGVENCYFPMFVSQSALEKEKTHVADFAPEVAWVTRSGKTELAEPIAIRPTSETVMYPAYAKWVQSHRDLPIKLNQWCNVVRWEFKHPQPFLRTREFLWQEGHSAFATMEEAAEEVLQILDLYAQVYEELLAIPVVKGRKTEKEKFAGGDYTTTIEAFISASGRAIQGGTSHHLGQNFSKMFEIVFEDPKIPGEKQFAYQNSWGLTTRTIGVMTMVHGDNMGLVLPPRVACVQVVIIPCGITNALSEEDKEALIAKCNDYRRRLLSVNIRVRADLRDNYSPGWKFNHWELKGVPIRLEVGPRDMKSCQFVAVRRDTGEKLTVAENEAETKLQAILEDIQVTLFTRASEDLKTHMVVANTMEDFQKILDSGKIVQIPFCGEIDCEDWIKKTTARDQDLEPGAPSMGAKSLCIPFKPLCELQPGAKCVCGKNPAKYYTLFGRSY
The experiment in a line: Assay for inhibitors of prolyl tRNA synthetase activity (ProRS assay, labeled proline incorporation). To be noted: human ProRS 20 nM, 10 min at 37° C.; read-out: EPRS IC50. The class given is biochemical. The text has this:
In order to establish the activities of the compounds highlighted above, we determined extent of inhibition of prolyl tRNA synthetase activity in dose response curves to obtain IC50 values.
The prolyl tRNA synthetase moiety (ProRS) in the cDNA of glutamyl prolyl tRNA synthetase was subcloned, tagged with a single biotin, purified and used in the assay.
Briefly, human ProRS with a 6×N-terminal His tag in pET28N with TVMV BioP was transformed in E. coli BL21 (DE3) cells, selected, overexpressed and purified using a Ni Seph 6 FF XK 16/20 column in the first stage. Ni-NTA eluates were pooled and treated with TVMV protease, and biotinylated using d-Biotin, MgCl2, ATP and the BirA enzyme. This was rerun through a Ni column as before. The eluates were further enriched and purified using membrane ultrafiltration and a SuperDex 200 XK 16/60 column, and peak fractions were confirmed by SDS-PAGE prior to protein amount determination, aliquoting and storage at −80° C. • ProRS assay was performed in 96 well plates in a final reaction volume of 20 μl, using staggered additions of Tris-Cl (pH 7.5, 60 mM), dithiothreitol (2 mM), ATP (5 mM, pH 7.0), MgCl2 6 mM), ProRS (20 nM, with pre-determined active fraction range) and bovine tRNA (20 μg). Controls and compounds, at various concentrations (10 μM to 0.5 nM), were incubated on ice with enzyme mix for 15 min followed by addition of proline (non-labeled and labeled, 3.96 and 1.04 μM (1 μCi) respectively) to initiate the reaction. Reaction was carried out for 10 min at 37° C. and terminated by addition of TCA (10%, 100 μl). Reaction mix was collected on a Whatman GF/B filter using a vacuum filtration manifold. This filter was washed 3 times with 5% TCA followed by 2 washes with ethanol, air dried, and read using a liquid scintillation counter (TopCount NXT) using MicroScint O. IC50 values were calculated and analyzed using ToolSet (4-parameter plot) and depicted herein.

Data set [2] has as its system Rat hepatocytes. The experiment in a line: GSH trapping assay in rat hepatocytes. The class given is in vitro ADME. To be noted: 30 μM, 24 hr incubation, LC-MS. As for the experimental part:
Rat hepatocytes were isolated from male Sprague-Dawley rats (Vivo Biotech Ltd, HYD, India), weighing 230 to 280 g by the two step collagenase perfusion method (seglen, 1976; Berry M N and Friend D S.1969). Rat hepatocytes were cultured in Dulbecco's Modified Eagle's Medium (DMEM, Gibco®, USA) supplemented with 10^−6 M dexamethasone (Gibco®), 5% fetal bovine serum (Gibco®) and cocktail-A mix (CM3000, Gibco®) containing HEPES buffer (PH 7.4), GlutaMAX™, human recombinant insulin, penicillin and streptomycin. Initial cell viability assessed by Trypanblue stain 0.4% (Sigma, UK) and viability more than 80% were considered for culturing. Hepatocytes were seeded in 96 well type-I collagen coated plates (Gibco®) at 4×10^4 cells/well in 100 μL of the culture medium and incubated at 37° C. in 5% CO2 and 95% relative humidity (RH) for 4 hr of cell attachment.
After 4 hr incubation, rat hepatocytes were washed twice with pre-warmed (37° C.) DMEM incubation medium supplemented with 10^−7 M dexamethasone and cell maintenance cocktail-B (CM4000, Gibco®) solution to remove unattached cells. Post washing hepatocytes were treated with test and reference compounds in incubation medium at single concentration (30 μM) in duplicate and incubate further for 24 hr at 37° C. with 5% CO2 and 95% RH. The final concentration of DMSO in medium was 0.5%.
Post 24 hr incubation, hepatocyte samples were quenched with equal volumes of acetonitrile containing 0.1% formic acid followed by vortex mix, sonicate and centrifuge at 12000 rpm at room temperature for 5 min. Supernatant samples were analyzed for GSH adducts on a C18 reverse-phase column (Xbridge™ Shield, C18, 4.6×150 mm, 3.5 μm) with solvent A (10 mM ammonium formate and 0.1% formic acid/water) and solvent B (0.1% formic acid/acetonitrile).
The column was eluted with 5% B for 5 min and then with a linear gradient to 20% B over 10 min and it was maintained up to 15 min, then it was increased linearly to 40% B up to 27 min and then increase to 90% B up to 29 min, and then equilibrate back the column to 5% B up to 33 min at a flow rate of 0.6 ml/min. The column effluent was directed into the ESI source of a LTQ Velos Orbitrap mass spectrometer (Thermo Fisher Scientific, San Jose, Calif.). The ESI conditions were as follows: sheath gas flow rate, 40 arbitrary units; auxiliary gas, 30 arbitrary units; spray voltage, 4.5 kV; capillary temperature, 230° C.; capillary voltage, 30 V; and tube lens offset, 25 V. Data were acquired in positive ion mode using Xcalibur software (Thermo Fisher Scientific) with one full scan followed by two data-dependent scans of the most intense and the second most intense ions. During the data interpretation the characteristic fragments of neutral loss of glycine (75.0320 Da), pyroglutamic acid (129.0426 Da) and loss of neutral moiety GSH (307.0838 Da) and/or a specific fragment of (GSH+H)^+ (m/z 308.0911) were monitored. Finally the fragments ions with m/z e.g. 179.0485, 177.0328 and 162.0219 Da, which were derived from the glutathione moiety were used to report GSH positive results.

As for `Cc1cc(Br)cc2c(=O)n(CC(=O)C[C@H]3NCCC[C@@H]3O)cnc12.Cl` [Example 3, 6-Bromo-3-{3-[(2R,3S)-3-hydroxypiperidin-2-yl]-2-oxopropyl}-8-methylquinazolin-4(3H)-one hydrochloride], the concentration for half-maximal inhibition (IC50) (commonly the concentration that gives 50% inhibition) in data set [1] is 4 nM. Moreover, in data set [2], the GSH adduct formation entry is recorded as “Negative”. As to `Cl.O=c1c2c(-c3cccc(F)c3)cccc2ncn1C[C@@H](O)C[C@H]1NCCC[C@@H]1O` [Example 49], the GSH adduct formation entry in data set [2] is reported as “Negative”. Regarding `Cc1cc(-c2ccc(F)c(F)c2)cc2c(=O)n(C[C@@H](O)C[C@H]3NCCC[C@@H]3O)cnc12` [Example 56, 6-(3,4-Difluorophenyl)-3-{(S)-2-hydroxy-3-[(2R,3S)-3-hydroxypiperidin-2-yl]propyl}-8-methylquinazolin-4(3H)-one hydrochloride], the IC50 in data set [1] turned out to be 4 nM. Turning to `Cc1cc(C2CCOCC2)cc2c(=O)n(C[C@@H](O)C[C@H]3NCCC[C@@H]3O)cnc12` [Example 57, 3-{(S)-2-Hydroxy-3-[(2R,3S)-3-hydroxypiperidin-2-yl]propyl}-8-methyl-6-(tetrahydro-2H-pyran-4-yl)quinazolin-(3H)-one hydrochloride], the IC50 in data set [1] is 52 nM.

Turning to `Cc1cc(N2CCCC2)cc2c(=O)n(C[C@@H](O)C[C@H]3NCCC[C@@H]3O)cnc12` [Example 58, 3-{(S)-2-Hydroxy-3-[(2R,3S)-3-hydroxypiperidin-2-yl]propyl}-8-methyl-6-(pyrrolidin-1-yl)quinazolin-4(3H)-one dihydrochloride], in data set [1], the IC50 was found to be 321 nM. The same measure, in the same setting: then `O=c1c2c(C(F)(F)F)cccc2ncn1C[C@@H](O)C[C@H]1NCCC[C@@H]1O` [Example 59, 3-{(S)-2-Hydroxy-3-[(2R,3S)-3-hydroxypiperidin-2-yl]propyl}-5-(trifluoromethyl)quinazolin-4(3H)-one hydrochloride], with 316 nM. Still for that read-out and setting: then `O=c1c2c(-c3cccc(C(F)(F)F)c3)cccc2ncn1C[C@@H](O)C[C@H]1NCCC[C@@H]1O` [Example 60, 3-{(S)-2-Hydroxy-3-[(2R,3S)-3-hydroxypiperidin-2-yl]propyl}-5-[3-(trifluoromethyl)phenyl]quinazolin-4(3H)-one hydrochloride], with 38 nM; and `O=c1c2c(-c3ccc(F)c(F)c3)cccc2ncn1C[C@@H](O)C[C@H]1NCCC[C@@H]1O` [Example 61, 5-(3,4-Difluorophenyl)-3-{(S)-2-hydroxy-3-[(2R,3S)-3-hydroxypiperidin-2-yl]propyl}quinazolin-4(3H)-one hydrochloride], with 69 nM; and `O=c1c2c(-c3cccnc3)cccc2ncn1C[C@@H](O)C[C@H]1NCCC[C@@H]1O` [Example 62, 3-{(S)-2-Hydroxy-3-[(2R,3S)-3-hydroxypiperidin-2-yl]propyl}-5-(pyridin-3-yl)quinazolin-4(3H)-one dihydrochloride], with 53 nM. `Cc1cc(Cl)cc2c(=O)n(C[C@@H](O)C[C@H]3NCCC[C@@H]3OC(=O)C(C)(C)C)cnc12` [Example 63, (2R,3S)-2-{(S)-3-[6-chloro-8-methyl-4-oxoquinazolin-3(4H)-yl]-2-hydroxypropyl}piperidin-3-ylpivalate hydrochloride]: the IC50 in data set [1] is above 10000 nM. As to `Cc1cc(-c2ccn(C)n2)cc2c(=O)n(C[C@@H](O)C[C@H]3NCCC[C@@H]3O)cnc12` [Example 64, 3-{(S)-2-hydroxy-3-[(2R,3S)-3-hydroxypiperidin-2-yl]propyl}-8-methyl-6-(1-methyl-1H-pyrazol-3-yl)quinazolin-4(3H)-one hydrochloride], in data set [1], the IC50 stood at 30 nM. Still for that read-out and setting: then `COC(=O)N1CCC[C@H](O)[C@H]1C[C@H](O)Cn1cnc2c(C)cc(Cl)cc2c1=O` [Example 65, Methyl (2R,3S)-2-((S)-3-(6-chloro-8-methyl-4-oxoquinazolin-3(4H)-yl)-2-hydroxypropyl)-3-hydroxypiperidine-1-carboxylate], with above 10000 nM. The same measure, in the same setting: then `Cc1cc(-c2cscn2)cc2c(=O)n(C[C@@H](O)C[C@H]3NCCC[C@@H]3O)cnc12` [Example 66, 3-((S)-2-hydroxy-3-((2R,3S)-3-hydroxypiperidin-2-yl)propyl)-8-methyl-6-(thiazol-4-yl)quinazolin-4(3H)-one hydrochloride], with 13 nM; and `Cc1cc(C2CCC2)cc2c(=O)n(C[C@@H](O)C[C@H]3NCCC[C@@H]3O)cnc12` [Example 67, 6-cyclobutyl-3-{(S)-2-hydroxy-3-[(2R,3S)-3-hydroxypiperidin-2-yl]propyl}-8-methylquinazolin-4(3H)-one], with 18 nM; and `O=c1c2c(C3CC3)cccc2ncn1C[C@@H](O)C[C@H]1NCCC[C@@H]1O` [Example 68, 5-Cyclopropyl-3-{(S)-2-hydroxy-3-[(2R,3S)-3-hydroxypiperidin-2-yl]propyl}quinazolin-4(3H)-one hydrochloride], with 9 nM.

Regarding `Cc1cc(C2CCNCC2)cc2c(=O)n(C[C@@H](O)C[C@H]3NCCC[C@@H]3O)cnc12` [Example 69, 3-{(S)-2-hydroxy-3-[(2R,3S)-3-hydroxypiperidin-2-yl]propyl}-8-methyl-6-(piperidin-4-yl)quinazolin-4(3H)-one dihydrochloride], the half-maximal inhibitory concentration (IC50) in data set [1] was found to be 106 nM. As for `Cc1cc(Cl)cc2c(=O)n(C[C@@H]3C[C@@H]4[C@@H](O)CCCN4CO3)cnc12` [Example 72, 6-Chloro-3-{[(3S,4aR,5S)-5-hydroxyhexahydro-1H,3H-pyrido[1,2-c][1,3]oxazin-3-yl]methyl}-8-methylquinazolin-4(3H)-one], the IC50 in data set [1] was above 10000 nM.
